Measured values taken from patent publication US20060063711A1, “Use of sglt homolog” (priority 2002, published 2006).

Experiments:
Format in all cases: cell-based
human SGLT2 (hSGLT2) = biological target: T1, human SGLT2 (hSGLT2) (Homo sapiens, UniProt P31639); experiment: α-methyl glucose uptake in CHO cells expressing hSGLT2; conditions: control = NMDG without NaCl
T1 construct: expressed in transfected cells; host or cells: CHO cells
T1 sequence (P31639 1-672): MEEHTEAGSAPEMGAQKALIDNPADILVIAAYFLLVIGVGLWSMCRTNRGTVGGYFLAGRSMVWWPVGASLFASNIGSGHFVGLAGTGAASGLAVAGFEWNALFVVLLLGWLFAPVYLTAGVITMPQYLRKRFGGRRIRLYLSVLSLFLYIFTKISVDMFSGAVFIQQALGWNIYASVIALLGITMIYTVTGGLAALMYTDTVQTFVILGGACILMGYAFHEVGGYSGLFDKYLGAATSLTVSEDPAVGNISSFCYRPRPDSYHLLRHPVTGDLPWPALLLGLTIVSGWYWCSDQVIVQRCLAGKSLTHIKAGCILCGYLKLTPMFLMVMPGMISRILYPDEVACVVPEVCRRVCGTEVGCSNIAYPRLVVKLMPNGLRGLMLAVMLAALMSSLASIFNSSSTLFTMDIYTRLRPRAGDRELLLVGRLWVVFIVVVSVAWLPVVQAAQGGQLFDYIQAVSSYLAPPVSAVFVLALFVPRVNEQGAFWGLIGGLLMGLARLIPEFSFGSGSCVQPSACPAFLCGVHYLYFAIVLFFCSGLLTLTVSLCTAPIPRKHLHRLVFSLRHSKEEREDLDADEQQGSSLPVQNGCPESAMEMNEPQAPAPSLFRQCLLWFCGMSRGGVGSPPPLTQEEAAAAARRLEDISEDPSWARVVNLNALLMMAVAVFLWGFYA
Experimental: The cells were plated on 100 μl of DMEM containing 10% FBS charged in a 96-well plate in a cell density of 1×10^5 cells/well, followed by culturing overnight at 37° C. […] The buffer solution was removed and replaced with 90 μl of the same buffer solution or the buffer solution containing NaCl or NaCl+Phlorizin (Sigma) in place of N-Methyl-D-Glucamine (NMDG). After one-hour incubation with 10 μl of 1 mM α-methyl glucose (containing 0.02 μCi of [^14C]-α-Methyl Glucose (Amersham Pharmacia Biotech)) per well, the cells were washed 3 times with 200 μl of chilled PBS buffer. The radioactivity of ^14C taken up into the cells was counted with 100 μl of a liquid scintillator added per well.

[1] = system: rat SGLT homolog (rSGLTh); experiment: α-methyl glucose uptake in CHO cells expressing rSGLTh; conditions: control = NMDG without NaCl
Experimental: In accordance with the procedures described in Example 4 of WO 02/53738, the CHO cell lines expressing the human SGLT homolog (hSGLTh), mouse SGLT homolog (mSGLTh), rat SGLT homolog (rSGLTh), human SGLT1 (hSGLT1) and human SGLT2 (hSGLT2) were prepared, respectively, and used for experiments. The experimental uptake of α-methyl glucose, which is a glucose analog selectively taken up into the cells by SGLT, was carried out according to the method described in Am. J. Physiol., 270: G833-G843, 1996 and J. Clin. Invest., 93: 397-404, 1994. The cells were plated on 100 μl of DMEM containing 10% FBS charged in a 96-well plate in a cell density of 1×10^5 cells/well, followed by culturing overnight at 37° C. The cells were washed 3 times with 150 μl of a buffer solution (125 mM N-Methyl-D-Glucamine, 1.2 mM KH2PO4, 2.5 mM CaCl2, 1.2 mM MgSO4, 4 mM Glutamine, 10 mM HEPES (pH 7.2), 0.1 mg/ml BSA) and cultured for an hour in the same buffer solution to remove the remaining glucose. The buffer solution was removed and replaced with 90 μl of the same buffer solution or the buffer solution containing NaCl or NaCl+Phlorizin (Sigma) in place of N-Methyl-D-Glucamine (NMDG). […] The radioactivity of ^14C taken up into the cells was counted with 100 μl of a liquid scintillator added per well.

[2] = biological target: T2, mouse SGLT homolog (mSGLTh) (Mus musculus, UniProt Q8VDT1); experiment: α-methyl glucose uptake in CHO cells expressing mSGLTh; conditions: for Uptake of α-Methyl Glucose (% based on Control Group): mSGLTh CHO cells, control = NMDG without NaCl
T2 construct: expressed in transfected cells; host or cells: CHO cells
T2 sequence (Q8VDT1 8-685 limits assumed): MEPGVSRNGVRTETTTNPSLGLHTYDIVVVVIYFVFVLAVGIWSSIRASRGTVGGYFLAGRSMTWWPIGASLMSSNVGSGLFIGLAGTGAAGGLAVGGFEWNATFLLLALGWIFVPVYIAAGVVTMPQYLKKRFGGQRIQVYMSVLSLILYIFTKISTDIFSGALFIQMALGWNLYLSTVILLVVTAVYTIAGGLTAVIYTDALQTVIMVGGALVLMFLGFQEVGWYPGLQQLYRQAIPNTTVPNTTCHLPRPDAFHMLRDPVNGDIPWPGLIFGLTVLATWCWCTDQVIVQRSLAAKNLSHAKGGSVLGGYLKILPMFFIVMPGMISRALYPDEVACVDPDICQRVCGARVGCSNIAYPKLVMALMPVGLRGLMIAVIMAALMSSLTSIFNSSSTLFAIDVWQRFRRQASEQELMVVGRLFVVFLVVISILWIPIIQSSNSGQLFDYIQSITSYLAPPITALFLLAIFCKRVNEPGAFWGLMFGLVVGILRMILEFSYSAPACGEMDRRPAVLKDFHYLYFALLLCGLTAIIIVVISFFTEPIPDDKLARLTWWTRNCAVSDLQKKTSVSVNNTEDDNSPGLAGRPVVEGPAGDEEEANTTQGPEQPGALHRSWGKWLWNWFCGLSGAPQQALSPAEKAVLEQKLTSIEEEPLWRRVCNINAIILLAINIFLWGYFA
Experimental: In accordance with the procedures described in Example 4 of WO 02/53738, the CHO cell lines expressing the human SGLT homolog (hSGLTh), mouse SGLT homolog (mSGLTh), rat SGLT homolog (rSGLTh), human SGLT1 (hSGLT1) and human SGLT2 (hSGLT2) were prepared, respectively, and used for experiments. The experimental uptake of α-methyl glucose, which is a glucose analog selectively taken up into the cells by SGLT, was carried out according to the method described in Am. J. Physiol., 270: G833-G843, 1996 and J. Clin. Invest., 93: 397-404, 1994. The cells were plated on 100 μl of DMEM containing 10% FBS charged in a 96-well plate in a cell density of 1×10^5 cells/well, followed by culturing overnight at 37° C. The cells were washed 3 times with 150 μl of a buffer solution (125 mM N-Methyl-D-Glucamine, 1.2 mM KH2PO4, 2.5 mM CaCl2, 1.2 mM MgSO4, 4 mM Glutamine, 10 mM HEPES (pH 7.2), 0.1 mg/ml BSA) and cultured for an hour in the same buffer solution to remove the remaining glucose. The buffer solution was removed and replaced with 90 μl of the same buffer solution or the buffer solution containing NaCl or NaCl+Phlorizin (Sigma) in place of N-Methyl-D-Glucamine (NMDG). After one-hour incubation with 10 μl of 1 mM α-methyl glucose (containing 0.02 μCi of [^14C]-α-Methyl Glucose (Amersham Pharmacia Biotech)) per well, the cells were washed 3 times with 200 μl of chilled PBS buffer. The radioactivity of ^14C taken up into the cells was counted with 100 μl of a liquid scintillator added per well.

O=C(CCc1ccc(O)cc1)c1c(O)cc(O)cc1O[C@@H]1O[C@H](CO)[C@@H](O)[C@H](O)[C@H]1O [phlorizin]
Uptake of α-Methyl Glucose (% based on Control Group) (human SGLT2 (hSGLT2); NaCl + 3 μM phlorizin): 139 ± 23% | Uptake of α-Methyl Glucose (% based on Control Group) (human SGLT2 (hSGLT2); NaCl + 100 μM phlorizin): 48 ± 8% | Uptake of α-Methyl Glucose (% based on Control Group) ([1]; NaCl + 15 μM phlorizin): 643 ± 76% | Uptake of α-Methyl Glucose (% based on Control Group) ([1]; NaCl + 500 μM): 118 ± 6% | Uptake of α-Methyl Glucose (% based on Control Group) ([2]; NaCl + 15 μM phlorizin): 521 ± 35% | Uptake of α-Methyl Glucose (% based on Control Group) ([2]; NaCl + 500 μM): 78 ± 8% | resistance to phlorizin ([2]; mouse SGLT homolog compared with SGLT1 and SGLT2): more potent than in SGLT1 and SGLT2
